# Measurements: publication PMC12661293 (RSC Advances, 2025)
# pIC50: −log10 of the molar value.
# Key:
# [1] = tested on: ct-DNA; assay: Spectrophotometric; type: binding, calf; conditions: ligand fixed 50 µM, ct-DNA 0–80 µM, phosphate buffer pH 7.2
# [2] = tested on: EB-ct-DNA; assay: Ethidium bromide displacement fluorescence quenching with ct-DNA; type: binding, calf
# [3] = tested on: ct-DNA; assay: Cyclic voltammetry of ligands with ct-DNA; type: binding, calf; conditions: increasing ct-DNA 10–80 µM, phosphate buffer pH 7.2
# [4] = biological target: T1, α-amylase (Sus scrofa, UniProt P00690); assay: In vitro α-amylase inhibitory assay; type: biochemical, porcine; conditions: for inhibition at 10 µM: read-out: %Inhibition at 10 µM; for inhibition at 40 µM: read-out: %Inhibition at 40 µM; for inhibition at 80 µM: read-out: %Inhibition at 80 µM; for inhibition at 140 µM: read-out: %Inhibition at 140 µM; for inhibition at 260 µM: read-out: %Inhibition at 260 µM; for inhibition at 400 µM: read-out: %Inhibition at 400 µM; for inhibition at 500 µM: read-out: %Inhibition at 500 µM
# T1 sequence (P00690 16-511): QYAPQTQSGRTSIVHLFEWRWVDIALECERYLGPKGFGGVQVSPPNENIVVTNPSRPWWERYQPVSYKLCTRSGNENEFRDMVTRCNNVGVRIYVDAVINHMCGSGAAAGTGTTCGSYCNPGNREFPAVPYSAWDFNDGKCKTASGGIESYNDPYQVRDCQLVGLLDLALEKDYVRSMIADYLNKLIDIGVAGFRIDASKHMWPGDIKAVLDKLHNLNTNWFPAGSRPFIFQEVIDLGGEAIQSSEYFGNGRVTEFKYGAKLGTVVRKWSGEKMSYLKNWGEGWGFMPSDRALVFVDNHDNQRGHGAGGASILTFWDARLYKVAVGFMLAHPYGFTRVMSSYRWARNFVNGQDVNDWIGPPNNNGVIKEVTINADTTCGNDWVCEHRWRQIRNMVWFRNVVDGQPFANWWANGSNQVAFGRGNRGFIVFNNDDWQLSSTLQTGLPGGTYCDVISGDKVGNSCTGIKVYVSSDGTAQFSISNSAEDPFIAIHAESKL
# [5] = biological target: α-glucosidase (Saccharomyces cerevisiae, UniProt P53341); assay: In vitro α-glucosidase inhibitory assay; type: biochemical; conditions: for inhibition at 10 µM: read-out: %Inhibition at 10 µM; for inhibition at 40 µM: read-out: %Inhibition at 40 µM; for inhibition at 100 µM: read-out: %Inhibition at 100 µM; for inhibition at 140 µM: read-out: %Inhibition at 140 µM; for inhibition at 350 µM: read-out: %Inhibition at 350 µM; for inhibition at 400 µM: read-out: %Inhibition at 400 µM; for inhibition at 500 µM: read-out: %Inhibition at 500 µM
# Sequence of α-glucosidase (P53341 whole entry): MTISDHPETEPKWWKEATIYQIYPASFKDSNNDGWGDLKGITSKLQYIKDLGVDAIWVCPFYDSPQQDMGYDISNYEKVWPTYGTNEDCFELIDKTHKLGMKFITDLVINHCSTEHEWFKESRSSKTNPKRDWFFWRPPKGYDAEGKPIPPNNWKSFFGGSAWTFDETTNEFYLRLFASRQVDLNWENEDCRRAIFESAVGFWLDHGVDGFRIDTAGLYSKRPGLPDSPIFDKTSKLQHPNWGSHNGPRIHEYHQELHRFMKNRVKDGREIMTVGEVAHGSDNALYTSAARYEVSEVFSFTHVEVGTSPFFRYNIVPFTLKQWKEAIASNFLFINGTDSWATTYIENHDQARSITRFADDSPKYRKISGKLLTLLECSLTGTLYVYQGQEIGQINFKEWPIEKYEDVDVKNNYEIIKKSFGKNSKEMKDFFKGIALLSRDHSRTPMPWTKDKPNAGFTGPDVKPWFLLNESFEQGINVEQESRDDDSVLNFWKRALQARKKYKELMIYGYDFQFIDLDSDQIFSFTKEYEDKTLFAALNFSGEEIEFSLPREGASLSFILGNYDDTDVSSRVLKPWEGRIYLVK
SMILES,inhibition at 10 µM [4] [%],inhibition at 40 µM [4] [%],inhibition at 80 µM [4] [%],inhibition at 140 µM [4] [%],inhibition at 260 µM [4] [%],inhibition at 400 µM [4] [%],inhibition at 500 µM [4] [%],pIC50 [5],inhibition at 10 µM [5] [%],inhibition at 40 µM [5] [%],inhibition at 100 µM [5] [%],inhibition at 140 µM [5] [%],inhibition at 350 µM [5] [%],inhibition at 400 µM [5] [%],inhibition at 500 µM [5] [%],also measured
"Cc1c(C(=O)C=Cc2cccc([N+](=O)[O-])c2)cnn1-c1ccccc1 [L^III, 1-(5-methyl-1-phenyl-1H-pyrazol-4-yl)-3-(3-nitrophenyl) prop-2-en-1-one]",9.1,9.5,11,12,16.8,26,28.9,3.55,9.36,10.8,21.4,32.4,67,71.5,74.1,Binding constant (kb) [1]: 15590 M⁻¹; Interaction mode [1]: Intercalative; Quenching constant (Ksv) ([2]; Stern–Volmer): 3030 M⁻¹; Binding constant (Kb) ([2]; modified Stern–Volmer): 4315.8 M⁻¹; Binding mode from cyclic voltammetry [3]: intercalation; pIC50 ([4]; IC50 α-amylase): 3.01
"Cc1c(C(=O)C=Cc2ccc(Cl)cc2Cl)cnn1-c1ccccc1 [L^II, 3-(2,4-dichlorophenyl)-1-(5-methyl-1-phenyl-1H-pyrazol-4-yl)prop-2-en-1-one]",–,–,–,–,–,–,–,3.67,–,–,–,–,–,–,–,–
"Cc1cccc(C=CC(=O)c2cnn(-c3ccccc3)c2C)c1 [L^I, 1-(5-methyl-1-phenyl-1H-pyrazol-4-yl)-3-(m-tolyl)prop-2-en-1-one]",–,–,–,–,–,–,–,3.40,–,–,–,–,–,–,–,–
"C[C@H]1O[C@H](O[C@H]2[C@H](O)[C@@H](O)[C@@H](O[C@H]3[C@H](O)[C@@H](O)C(O)O[C@@H]3CO)O[C@@H]2CO)[C@H](O)[C@@H](O)[C@@H]1N[C@H]1C=C(CO)[C@@H](O)[C@H](O)[C@H]1O (stereo partly shown) [Acarbose, acarbose, reference compound]",1.2,1.6,6,26.4,39.8,65.1,74.8,–,2.9,9.44,13,16.2,81.2,97.2,97.7,–
